Source: US20110311601A1, “ANTIMICROBIAL MEDICAL DEVICES” (priority 2010, published 2011)
Where no end group is shown, it is not given here.

How the values were obtained:
Test in all cases: micro-dilution assay (MBC, LD90)
Type in all cases: cell-based
[1] = system: Streptococcus pneumoniae DSM 11865 (Penr)
Protocol: (§1) The anti-bacterial activity of hβD2 was tested by a micro-dilution assay. Bacteria and fungi were streaked from a glycerol stock onto a Brain Heart Infusion (BHI) agar plate (3.7% w/v BHI Bouillon, 1.5% w/v Agar), grown overnight at 37° C. and 30° C., respectively and subsequently used to inoculate 40 ml of 3.7% w/v BHI Bouillon without any antibiotics in 100 ml flasks. Fresh cells were harvested by centrifugation at 16000 rpm for 10 min and washed twice with 10 mM sodium phosphate buffer, pH 7.2. The optical density was adjusted to 10^4 cells/ml. For anti-bacterial testing hβD2 was incubated in one well of a microtiter plate containing 100 μl of the bacterial suspension. Therefore, ten microlitres of hβD2 solution with a range of final concentrations tested from 0.0125 up to and including 100 mg/l was added to the bacterial suspension and incubated at 37° C. and 30° C., respectively for 2 h before colony forming units were determined. Colony forming units (CFU) were determined after plating 100 μl of a 1:100 dilution of the bacterial suspension on petri dishes with BHI medium and incubating them overnight at 37° C. For every group of the hβD2 added samples and the controls, 5 independent anti-bacterial assays were performed. A control (NC) of bacterial growth was examined for every independent assay. The number of CFU on the control (consisting of a single petri dish) was set to 0% bactericidal activity. The reduction in the CFU resulting from the anti-bacterial activity of hβD2 was related to the absolute CFU of the control within every independent assay. This value, given as a percentage of the bacterial “killing” activity, was used to describe the antibacterial activity. This kind of normalisation of the antibacterial data was performed for every experimental group.
(§2) The antibacterial activity of hβD2 were given either as minimum bactericidal concentration (MBC), i.e., the minimum concentration of hβD2 in μg/ml which is required to kill 99.9% of the bacteria or fungi or as lethal dose (LD90), i.e., the concentration of hβD2 in μg/ml which is lethal for 90% of bacteria or fungi.

[2] = system: Klebsiella pneumoniae (ESBL) CF 2 (wild-type)
Protocol: as §1, §2

[3] = system: Burkholderia cepacia ATCC 25416
Protocol: as §1, §2

[4] = system: Proteus mirabilis UR 1792/03 (wild-type)
Protocol: as §1, §2

[5] = system: Pseudomonas aeruginosa CF 453 Va mr (wild-type)
Protocol: as §1, §2

[6] = system: Staphylococcus aureus (MRSA 355) (wild-type)
Protocol: as §1, §2

[7] = system: Citrobacter freundii NCTC 9750
Protocol: as §1, §2

[8] = system: Enterococcus faecalis ATCC 51299 VRE
Protocol: as §1, §2

[9] = system: Candida albicans ATCC 10231
Protocol: as §1, §2

[10] = system: Pseudomonas aeruginosa CF 479 mr (wild-type)
Protocol: as §1, §2

[11] = system: Citrobacter freundii BK 3796/00 (wild-type)
Protocol: as §1, §2

[12] = system: Staphylococcus epidermidis ATCC 14990
Protocol: as §1, §2

[13] = system: Pseudomonas fluorescens NCTC 10038
Protocol: as §1, §2

[14] = system: Providencia stuartii NCTC 10318
Protocol: as §1, §2

[15] = system: Brevundimonas diminuta ATCC 11568
Protocol: as §1, §2

E. coli ATCC 35218 = system: E. coli ATCC 35218
Protocol: as §1, §2

[16] = system: Stenotrophomonas maltophilia ATCC 17666
Protocol: as §1, §2

[17] = system: Candida albicans C.a 46 (wild-type)
Protocol: as §1, §2

[18] = system: Acinetobacter genosp. 3 ATCC 19004
Protocol: as §1, §2

[19] = system: Morganella morganii RV B4/97
Protocol: as §1, §2

[20] = system: Candida glabrata UR 5836/02 (wild-type)
Protocol: as §1, §2

[21] = system: Providencia rettgeri NCTC 7475
Protocol: as §1, §2

[22] = system: Acinetobacter baumannii ATCC 19606
Protocol: as §1, §2

[23] = system: Acinetobacter Genosp. 10 ATCC 17924
Protocol: as §1, §2

[24] = system: Candida glabrata BK 9570/02 (wild-type)
Protocol: as §1, §2

[25] = system: Proteus vulgaris UR 1464/03 (wild-type)
Protocol: as §1, §2

human β-defensin-2 (GIGDPVTCLKSGAICHPVFCPRRYKQIGTCGLPGTKCCKKP; ends and bridges not checked; cysteine pairing not given here) [hβD2, recombinant hβD2]
0.78 µg/mL: MBC = μg/ml 99.9% killing [18]
1.56 µg/mL: MBC = μg/ml 99.9% killing [23]
12.5 µg/mL: MBC = μg/ml 99.9% killing [4] | LD 90 = μg/ml 90% killing [5] | LD 90 = μg/ml 90% killing [7] | LD 90 = μg/ml 90% killing [9] | LD 90 = μg/ml 90% killing [10] | MBC = μg/ml 99.9% killing [15] | LD 90 = μg/ml 90% killing [22] | MBC = μg/ml 99.9% killing [25]
6.25 µg/mL: LD 90 = μg/ml 90% killing [2] | MBC = μg/ml 99.9% killing [11] | LD 90 = μg/ml 90% killing [13] | LD 90 = μg/ml 90% killing [15] | MBC = μg/ml 99.9% killing (E. coli ATCC 35218) | LD 90 = μg/ml 90% killing [16] | LD 90 = μg/ml 90% killing [17] | LD 90 = μg/ml 90% killing [20]
>100 µg/mL: MBC = μg/ml 99.9% killing [3] | MBC = μg/ml 99.9% killing [14] | MBC = μg/ml 99.9% killing [19] | MBC = μg/ml 99.9% killing [21] | LD 90 = μg/ml 90% killing [24] | MBC = μg/ml 99.9% killing [24]
25 µg/mL: MBC = μg/ml 99.9% killing [2] | MBC = μg/ml 99.9% killing [5] | LD 90 = μg/ml 90% killing [6] | MBC = μg/ml 99.9% killing [9] | MBC = μg/ml 99.9% killing [10] | MBC = μg/ml 99.9% killing [13] | MBC = μg/ml 99.9% killing [17] | MBC = μg/ml 99.9% killing [22]
0.39 µg/mL: LD 90 = μg/ml 90% killing [23]
3.125 µg/mL: LD 90 = μg/ml 90% killing [4] | LD 90 = μg/ml 90% killing [11] | LD 90 = μg/ml 90% killing (E. coli ATCC 35218) | LD 90 = μg/ml 90% killing [25]
50 µg/mL: LD 90 = μg/ml 90% killing [1] | MBC = μg/ml 99.9% killing [7] | LD 90 = μg/ml 90% killing [8] | LD 90 = μg/ml 90% killing [12] | MBC = μg/ml 99.9% killing [16] | MBC = μg/ml 99.9% killing [20]
0.2 µg/mL: LD 90 = μg/ml 90% killing [18]
100 µg/mL: MBC = μg/ml 99.9% killing [1] | LD 90 = μg/ml 90% killing [3] | MBC = μg/ml 99.9% killing [6] | MBC = μg/ml 99.9% killing [8] | MBC = μg/ml 99.9% killing [12] | LD 90 = μg/ml 90% killing [14] | LD 90 = μg/ml 90% killing [19] | LD 90 = μg/ml 90% killing [21]
